In EP2627439B1, “METHOD FOR SOLUBILIZING CARBOXYLIC ACID-CONTAINING COMPOUND IN HYDROCARBON SOLVENT” (Dow Global Technologies LLC, priority 2011, dated 2013):

Experiment: Solubility measurement of acid chlorides containing one carboxylic acid moiety in hydrocarbon solvents (saturated solutions, proton NMR)
Assay type: physicochemical
Conditions: saturated solution, 20°C and 101 kPa
Protocol: Solubility measurement of acid chlorides containing one carboxylic acid moiety in hydrocarbon solvents with and without solubility enhancing additives: • Saturated solutions of sample acid chlorides containing carboxylic acid moieties were prepared in hydrocarbon solvents with and without the presence of trialkylphosphate additives by adding more sample than will dissolve in the solvent and decanting the saturated solvent from the undissolved precipitate. The saturated solutions were evaluated by proton NMR. Deuterated Isopar L is not commercially available, thus all spectra were acquired in the unlocked condition using regular Isopar L. Because of the very high proton concentration in running a non-deuterated solvent, 60° pulse and minimum receiver gain were used to avoid receiver overflow. A relaxation delay of 8 seconds was used for complete signal recovery between scans. The spectral width was set to 20 ppm and the center of the spectrum was set to 5 ppm. Depending on the concentrations of the species of interest, 64-256 scans were used for signal averaging.
The area of the Isopar L peaks between 0.75 and 2.0 ppm were measure and divided by 26 (which represents the average H's present in Isopar L, assuming a molecular formula of C12H26) and multiplied by 170.33, the formula weight of C12H26. The peak area of the aromatic acid chlorides containing carboxylates are between 8.9 - 9.2 ppm and are well resolved from the Isopar solvent. The integration of one of the assigned peaks (for example, the triplet of mono-hydrolyzed TMC at 9.0 ppm represents a single proton) was used to determine the relative weight of the sample in the Isopar L solvent. The integration is divided by the number of protons it represents and multiplied by the formula weight of the compound it represents (for example, the triplet of mono-hydrolyzed TMC at 9.0 ppm would be divided by 1 and multiplied by 247.03 g/mol). The wt% of mono-hydrolyzed TMC in the saturated solution is determined by dividing the value obtained for mono-hydrolyzed TMC by the value obtained for Isopar L.
In the presence of tributylphosphate (TBP), the Isopar L value must be corrected since a few protons of TBP cannot be resolved from the Isopar L peaks. This is done by integrating the -OCH2-protons of TBP which are well resolved at ∼4.05 ppm, dividing this value by 6 (for 6 protons). This area value is then multiplied by 21 (represents the three -CH2CH2CH3 that are unresolved from the Isopar L peak) and subtracted from the peak area of Isopar L. Table 2: […]

| SMILES | Solubility (wt%) (Solvent: Isopar L + 0.47 wt% TBP) | Solubility (wt%) (Solvent: Isopar L, no additive) | Solubility (wt%) (Solvent: 80/20 Isopar L / Toluene, no additive) | Solubility (wt%) (Solvent: 80/20 Isopar L/Toluene + 0.25 wt% TBP) | Solubility (wt%) (Solvent: Isopar L + 1 wt% TEHP) | Solubility (wt%) (Solvent: Isopar L + 1 wt% TEP) |
| --- | --- | --- | --- | --- | --- | --- |
| O=C(O)c1cccc(C(=O)Cl)c1 [mhIPC] | 0.29 wt% | <0.02 wt% |  |  |  |  |
| O=C(O)c1cc(C(=O)Cl)cc(C(=O)Cl)c1 [mhTMC, mono-hydrolyzed trimesoyl chloride] |  | 0.02 wt% | 0.05 wt% | 0.29 wt% | 0.11 wt% | 0.2 wt% |
